One assay concerns the target Human Factor D (Homo sapiens (Human), UniProt P00746). The experiment in a line: Human Factor D Assay. Type of assay: biochemical.
Conditions: not given
In short, it runs like this:
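First, compound at various concentrations is mixed with 80 nM (final) human serum Factor D in 50 mM Tris, 1M NaCl, pH 7.5 for 5 min at room temperature.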
Chain of Human Factor D (P00746 26-253): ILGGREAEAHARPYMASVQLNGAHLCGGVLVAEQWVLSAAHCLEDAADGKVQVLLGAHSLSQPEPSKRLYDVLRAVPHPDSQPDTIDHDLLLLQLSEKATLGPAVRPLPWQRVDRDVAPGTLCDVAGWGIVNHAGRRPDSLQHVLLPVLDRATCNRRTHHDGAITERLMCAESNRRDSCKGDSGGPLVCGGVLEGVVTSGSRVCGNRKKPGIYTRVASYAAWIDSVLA
As a reminder, the IC50 is the point on the concentration scale where inhibition reaches its midpoint. `CC(=O)c1nn(CC(=O)N2CCC[C@H]2C(=O)Nc2cccc(C)n2)c2ccc(-c3ccc4c(c3)CCC4)cc12` [Compound 572, (S)-1-(2-(3-Acetyl-5-(2,3-dihydro-1H-inden-5-yl)-1H-indazol-1-yl)acetyl)-N-(6-methylpyridin-2-yl)pyrrolidine-2-carboxamide] had an IC50 of 1000 to 10000 nM.

The same assay, now with this note: Human Factor D, Table 3; read-out: IC50.
On to `CC(=O)c1nn(CC(=O)N2[C@@H]3C[C@@H]3C[C@H]2C(=O)NC/C(F)=C(\C)c2ccccc2)c2ccc(-c3cnc(C)nc3)cc12` [Compound 557, (1R,3S,5R)-2-(2-(3-Acetyl-5-(2-methylpyrimidin-5-yl)-1H-indazol-1-yl)acetyl)-N—((Z)-2-fluoro-3-phenylbut-2-en-1-yl)-2-azabicyclo[3.1.0]hexane-3-carboxamide], for which the IC50 is below 1000 nM.
On to `CC(=O)c1nn(CC(=O)N2C[C@H](F)C[C@H]2C(=O)Nc2ccn(CC(F)(F)F)n2)c2ccc(-c3cnc(N)nc3)cc12` [Compound 558, (2S,4R)-1-(2-(3-Acetyl-5-(2-aminopyrimidin-5-yl)-1H-indazol-1-yl)acetyl)-4-fluoro-N-(1-(S2,2,2-trifluoroethyl)-1H-pyrazol-3-yl)pyrrolidine-2-carboxamide], for which the IC50 was below 1000 nM.
Regarding `CC(=O)c1nn(CC(=O)N2C[C@H](F)C[C@H]2C(=O)Nc2cccc(C(F)(F)F)n2)c2ccc(-c3cnc(N)nc3)cc12` [Compound 560, (2S,4R)-1-(2-(3-Acetyl-5-(2-aminopyrimidin-5-yl)-1H-indazol-1-yl)acetyl)-4-fluoro-N-(6-(trifluoromethyl)pyridin-2-yl)pyrrolidine-2-carboxamide], the IC50 was below 1000 nM.
Consider `CC(=O)c1nn(CC(=O)N2C[C@H](F)C[C@H]2C(=O)Nc2cccc(C(F)(F)F)n2)c2ccc(-c3cnc(C)nc3)cc12` [Compound 562, (2S,4R)-1-(2-(3-Acetyl-5-(2-methylpyrimidin-5-yl)-1H-indazol-1-yl)acetyl)-4-fluoro-N-(6-(trifluoromethyl)pyridin-2-yl)pyrrolidine-2-carboxamide], for which the half-maximal inhibitory concentration (IC50) was below 1000 nM.
Still for that read-out and setting: to `CC(=O)c1nn(CC(=O)N2C[C@H](F)C[C@H]2C(=O)Nc2cccc(OC(F)(F)F)c2F)c2ccc(-c3cnc(N)nc3)cc12` [Compound 563, (2S,4R)-1-(2-(3-Acetyl-5-(2-aminopyrimidin-5-yl)-1H-indazol-1-yl)acetyl)-4-fluoro-N-(2-fluoro-3-(trifluoromethoxy)phenyl)pyrrolidine-2-carboxamide] belongs below 1000 nM.
Take `CCc1ncc(-c2ccc3c(c2)c(C(C)=O)nn3CC(=O)N2C[C@H](F)C[C@H]2C(=O)Nc2cccc(Br)n2)cn1` [Compound 566, (2S,4R)-1-(2-(3-Acetyl-5-(2-ethylpyrimidin-5-yl)-1H-indazol-1-yl)acetyl)-N-(6-bromopyridin-2-yl)-4-fluoropyrrolidine-2-carboxamide]: the IC50 was below 1000 nM.
Consider `CC(=O)c1nn(CC(=O)N2C[C@H](F)C[C@H]2C(=O)Nc2cccc(Br)n2)c2ccc(-c3cnc(C(C)C)nc3)cc12` [Compound 567, (2S,4R)-1-(2-(3-Acetyl-5-(2-isopropylpyrimidin-5-yl)-1H-indazol-1-yl)acetyl)-N-(6-bromopyridin-2-yl)-4-fluoropyrrolidine-2-carboxamide], for which the IC50 is below 1000 nM.
As to `CC(=O)c1nn(CC(=O)N2C[C@H](F)C[C@H]2C(=O)NC[C@@H]2CCN(C)C2)c2ccc(-c3cnc(C)nc3)cc12` [Compound 568, (2S,4R)-1-(2-(3-Acetyl-5-(2-methylpyrimidin-5-yl)-1H-indazol-1-yl)acetyl)-4-fluoro-N—(((S)-1-methylpyrrolidin-3-yl)methyl)pyrrolidine-2-carboxamide], the IC50 is above 10000 nM.
As to `CC(=O)c1nn(CC(=O)N2C[C@H](F)C[C@H]2C(=O)NC[C@H]2CCN(C)C2)c2ccc(-c3cnc(C)nc3)cc12` [Compound 569, (2S,4R)-1-(2-(3-acetyl-5-(2-methylpyrimidin-5-yl)-1H-indazol-1-yl)acetyl)-4-fluoro-N—(((R)-1-methylpyrrolidin-3-yl)methyl)pyrrolidine-2-carboxamide], the IC50 is above 10000 nM.
Turning to `CC(=O)c1nn(CC(=O)N2CC[C@H]2C(=O)Nc2cccc(C)n2)c2ccc(-c3ccc4c(c3)CCC4)cc12` [Compound 573, (S)-1-(2-(3-Acetyl-5-(2,3-dihydro-1H-inden-5-yl)-1H-indazol-1-yl)acetyl)-N-(6-methylpyridin-2-yl)azetidine-2-carboxamide], the IC50 is above 10000 nM.
Take `CC(=O)c1nn(CC(=O)N2[C@@H]3C[C@@H]3C[C@H]2C(=O)Nc2nc(Br)ccc2CO)c2ccc(-c3cnc(C)nc3)cc12` [Compound 574, (1R,3S,5R)-2-(2-(3-acetyl-5-(2-methylpyrimidin-5-yl)-1H-indazol-1-yl)acetyl)-N-(6-bromo-3-(hydroxymethyl)pyridin-2-yl)-2-azabicyclo[3.1.0] hexane-3-carboxamide]: the concentration for half-maximal inhibition (IC50) is below 1000 nM.
For `CC(=O)c1nn(CC(=O)N2[C@@H]3C[C@@H]3C[C@H]2C(=O)NC/C(F)=C\c2ccccc2)c2ccc(-c3cnc(C)nc3)cc12` [Compound 575, (1R,3S,5R)-2-(2-(3-Acetyl-5-(2-methylpyrimidin-5-yl)-1H-indazol-1-yl)acetyl)-N-((E)-2-fluoro-3-phenylallyl)-2-azabicyclo[3.1.0]hexane-3-carboxamide], the 50% inhibitory concentration (IC50) is below 1000 nM.
On to `CC(=O)c1nn(CC(=O)N2C[C@H](F)C[C@H]2C(=O)Nc2cccc(C3CC3)n2)c2ccc(-c3cnc(C)nc3)cc12` [Compound 576, (2S,4R)-1-(2-(3-Acetyl-5-(2-methylpyrimidin-5-yl)-1H-indazol-1-yl)acetyl)-N-(6-cyclopropylpyridin-2-yl)-4-fluoropyrrolidine-2-carboxamide], for which the IC50 is below 1000 nM.
The same measure, in the same setting: for `COc1cccc(NC(=O)[C@@H]2C[C@@H](F)CN2C(=O)Cn2nc(C(C)=O)c3cc(-c4cnc(C)nc4)ccc32)n1` [Compound 580, (2S,4R)-1-(2-(3-Acetyl-5-(2-methylpyrimidin-5-yl)-1H-indazol-1-yl)acetyl)-4-fluoro-N-(6-methoxypyridin-2-yl)pyrrolidine-2-carboxamide] the value was below 1000 nM; for `CC(=O)c1nn(CC(=O)N2C[C@H](F)C[C@H]2C(=O)Nc2cncc(C(F)(F)F)n2)c2ccc(-c3cnc(C)nc3)cc12` [Compound 581, (2S,4R)-1-(2-(3-Acetyl-5-(2-methylpyrimidin-5-yl)-1H-indazol-1-yl)acetyl)-4-fluoro-N-(6-(trifluoromethyl)pyrazin-2-yl)pyrrolidine-2-carboxamide], below 1000 nM.
Take `CC(=O)c1nn(CC(=O)N2C[C@H](F)C[C@H]2C(=O)Nc2cccc(OC(F)F)n2)c2ccc(-c3cnc(C)nc3)cc12` [Compound 582, (2S,4R)-1-(2-(3-Acetyl-5-(2-methylpyrimidin-5-yl)-1H-indazol-1-yl)acetyl)-N-(6-(difluoromethoxy)pyridin-2-yl)-4-fluoropyrrolidine-2-carboxamide]: the IC50 was below 1000 nM.
Take `CC(=O)c1nn(CC(=O)N2C[C@H](F)C[C@H]2C(=O)Nc2cccc(Br)n2)c2ccc(-c3cnc(F)nc3)cc12` [Compound 583, (2S,4R)-1-(2-(3-Acetyl-5-(2-fluoropyrimidin-5-yl)-1H-indazol-1-yl)acetyl)-N-(6-bromopyridin-2-yl)-4-fluoropyrrolidine-2-carboxamide]: the IC50 is below 1000 nM.

The values are drawn from patent US10287301B2 (Achillion Pharmaceuticals, Inc., priority 2015, dated 2019).
